Consider nine compounds from ChEMBL document CHEMBL4342453, “Prenylated p-Terphenyls from a Mangrove Endophytic Fungus, Aspergillus candidus LDJ-5” (J Nat Prod, 2020).

≈ marks a conversion by molar mass, not a printed value.

As usually defined, the IC50 is the point on the concentration scale where inhibition reaches its midpoint. A low value points to greater potency in that assay. Usually MIC stands for the lowest concentration that inhibits growth of the organism.

One test concerns L02. Kind of test: Cytotoxicity against human L02 cells after 24 hrs by SRB method. As to conditions: L02, 24 h. On the technique in general: Sulforhodamine B stains cellular protein and so reports cell mass.
The test system of another test is MGC-803. Briefly: Cytotoxicity against human MGC803 cells after 24 hrs by SRB method. The note with it: MGC-803, 24 h.
The subject of a further test is HCT-116. Briefly: Cytotoxicity against human HCT116 cells after 24 hrs by SRB method. The note with it: HCT-116, 24 h.
The next test concerns Bel-7402. Kind of test: Cytotoxicity against human Bel7402 cells after 24 hrs by SRB method. The note with it: Bel-7402, 24 h.
Another test has as its system A549. Kind of test: Cytotoxicity against human A549 cells after 24 hrs by SRB method. As to conditions: A549, 24 h.
A further test relates to SH-SY5Y. Briefly: Cytotoxicity against human SH-SY5Y cells after 24 hrs by SRB method.
The subject of another test is HeLa. Kind of test: Cytotoxicity against human HeLa cells after 24 hrs by SRB method.
Another test relates to U-87 MG. Briefly: Cytotoxicity against human U87 cells after 24 hrs by SRB method.
For the next test, the system named is K562. Kind of test: Cytotoxicity against human K562 cells after 72 hrs by MTT assay. The note with it: K562, 72 h. (In general: Tetrazolium assays rely on reduction of a dye to a coloured formazan, in cell work by metabolically active cells.)
The subject of a further test is HL-60. Briefly: Cytotoxicity against human HL60 cells after 72 hrs by MTT assay. The note with it: HL-60, 72 h. Type of test: functional, cell-based.
In the next test the test system is Proteus. Kind of test: Antibacterial activity against Proteus by conventional broth dilution assay. Type of test: functional. Background: In broth dilution the organism is exposed to a series of concentrations in liquid medium.

Turning to `COc1cc2oc3c(OC)c(-c4cc(CC=C(C)C)c(O)c(OC)c4)cc(OC)c3c2cc1O`, the IC50 with L02 came to 17.9 µM; in the test with MGC-803, 1.4 µM; in the test with HCT-116, 0.9 µM; with Bel-7402, 16 µM; with A549 it was 2.8 µM; in the test with SH-SY5Y it was 2.2 µM. Also, the IC50 is 10.1 µM in the test on HeLa, greater than 50 µM in the test on U-87 MG, greater than 50 µM in the test on K562 and 3.4 µM with HL-60.

As to `COc1c(-c2ccccc2)cc(OC)c2c1oc1cc(O)c(OCC=C(C)C)cc12`, the IC50 in the test with L02 is 16.7 µM; in the test on MGC-803, 16.3 µM; in the test on HCT-116 it was 19.8 µM; in the test on Bel-7402, 14.9 µM; in the test with A549 it was 19.1 µM; in the test on SH-SY5Y it was 17.9 µM. In addition, the IC50 in the test on HeLa was 14 µM; with U-87 MG, 10.3 µM; in the test on K562, 5 µM; in the test with HL-60 it was greater than 50 µM.

As to `COc1cc(-c2c(OC)cc(-c3ccccc3)c(OC)c2O)ccc1OC/C=C(\C)CO`, the IC50 with L02 was 19.9 µM; in the test on MGC-803, 11 µM; in the test with HCT-116 it was 9.3 µM; in the test with Bel-7402, 12.4 µM; in the test on A549, 10.2 µM; in the test with SH-SY5Y it was 10.4 µM. Besides, the IC50 with HeLa is 8.3 µM; in the test on U-87 MG, greater than 50 µM; with K562, greater than 50 µM; in the test on HL-60, 7.1 µM.

Take `COc1cc(-c2c(OC)cc(-c3ccccc3)c(OC)c2O)cc2c1OC(C)(C)CC2`: the IC50 in the test on L02 worked out at 29.7 µM; with MGC-803, 12.5 µM; in the test on HCT-116 it was 16.9 µM; with Bel-7402, 12.6 µM; in the test with A549 it was 16.3 µM; with SH-SY5Y it was 12.4 µM. Further, the IC50 in the test on HeLa was 11.5 µM; with U-87 MG, greater than 50 µM; in the test with K562, greater than 50 µM; with HL-60, greater than 50 µM.

In the case of `COc1cc(-c2ccc(O)c(O)c2)c(OC)c(O)c1-c1ccc(OCC=C(C)C)c(O)c1`, the MIC in the test with Proteus worked out at 22 mg/L (≈ 50.2 µM). Moreover, the IC50 with L02 is 3.5 µM; in the test with MGC-803 it was 0.7 µM; with HCT-116 it was 0.5 µM; in the test on Bel-7402 it was greater than 50 µM; with A549, 0.4 µM; with SH-SY5Y, 0.6 µM. For the same compound, the IC50 in the test on HeLa is 2 µM; in the test with U-87 MG, 13.8 µM; in the test with K562, greater than 50 µM; in the test with HL-60, greater than 50 µM.

`COc1ccc(-c2c(OC)cc(-c3ccc(O)c(CC=C(C)C)c3)c(OC)c2O)cc1OC`: the IC50 is greater than 50 µM with L02; 8.1 µM in the test on MGC-803; 6.2 µM in the test on HCT-116; greater than 50 µM with Bel-7402; 7.6 µM with A549; 15.6 µM with SH-SY5Y. Besides, the IC50 in the test on HeLa was 8.5 µM; with U-87 MG, greater than 50 µM; in the test with K562 it was 15.9 µM; in the test with HL-60 it was greater than 50 µM.

In the case of `COc1cc2oc3c(OC)c(-c4cc(CC=C(C)C)c(O)c(OC)c4)cc(OC)c3c2cc1OC`, the IC50 in the test with L02, in the test on MGC-803, in the test with HCT-116, with Bel-7402, in the test with A549 and in the test on SH-SY5Y was greater than 50 µM each time. In addition, the IC50 in the test with HeLa, in the test on U-87 MG, in the test on K562 and with HL-60 was greater than 50 µM throughout.

In the case of `COc1c(-c2ccccc2)cc(OC)c2c1oc1c3c(c(O)cc12)OC(C)(C)C=C3`, the IC50 in the test with L02, in the test on MGC-803, with HCT-116, with Bel-7402, in the test with A549 and in the test on SH-SY5Y was greater than 50 µM in each case. In addition, the IC50 in the test with HeLa, in the test on U-87 MG, with K562 and with HL-60 was greater than 50 µM each time.

Regarding `COc1cc(-c2c(OC)cc(-c3ccccc3)c(OC)c2O)cc(CC=C(C)C)c1O`, the IC50 came to 24.4 µM in the test with L02; 14.5 µM in the test with MGC-803; 14.7 µM in the test with HCT-116; 11.1 µM in the test on Bel-7402; 14.8 µM in the test on A549; 16.7 µM with SH-SY5Y. The IC50 is 11.4 µM in the test on HeLa, greater than 50 µM with U-87 MG, greater than 50 µM with K562 and greater than 50 µM in the test on HL-60.
